The test system of one data set is HPH/BT549 coculture. As to the kind of experiment: LC-MS/MS determination of 4-OH-CPA formation in HPH/BT549 coculture medium. The class given is cell-based, human. To be noted: DL7076 10 μM. As for the experimental part: During the pre-treatment time, BT549 cells were seeded at 0.8×10^5 on collagen-coated coverslips modified to have their corners bent (FIG. 40a). […] 200 μL of cell culture medium was removed from each treatment group was immediately mixed with 20 μL of semicarbazide (SCZ; 2M) to stabilize 4-OH-CPA to its derivative 4-OH-CPA-SCZ. Once removed, samples were vortexed and left at room temperature for 10 minutes. 2 μM HMP was added as an internal standard and 200 μL acetonitrile was used to precipitate protein. Mass transitions were monitored at m/z: 261-140 for CPA, m/z: 334-221 for 4-OH-CPA-SCZ, and m/z: 180-135 for HMP under the positive multiple reaction monitoring mode.

Data set [1] relates to BT549 cells. As to the kind of experiment: Multi-organ co-culture (BT549/HPH/H9c2), BT549 viability. As to conditions: DL7076 10 μM. The class given is cell-based. The protocol: (§1) Additionally, HPH were cultured in collagen-coated 6-well plates and pre-treated as described in the previous co-culture system. BT549 and H9c2 cells were plated on similar modified coverslips 0.8×10^5 cells and allowed to attach for 24 hours during hepatocyte pre-treatment. […] Following pre-treatment, BT549 coverslips were inserted adjacent to H9c2 coverslips over the sandwich cultured HPH as depicted in FIG. 43a. […] Both BT549 and H9c2 cells were harvested at indicated time points and assess for viability, apoptosis, and DNA damage as detailed further. H9c2 cells were seeded 0.8×10^5 in 24-well plates. […] A Cell Counting Kit-8 (Enzo) assay was carried out. Cell viability was described as a percent of vehicle control (0.1% DMSO).

Data set [2] deals with BT549 cells. As to the kind of experiment: Cell viability assay, DOX-induced toxicity in BT549 cells. The class given is cell-based. To be noted: BT549, DOX 2.5 μM. The protocol:
(§2) Immortalized triple negative breast cancer cell lines MDA-MB-231 and BT549 were obtained from ATCC (Rockville, Md.). Additionally, the h9c2 cell line was purchased from ATCC (Rockville, Md.). […] Human iPSC-derived cardiomyocytes were maintained in Mtesr plus and supplemented according to protocol. These cells were treated for 2 hrs or an overnight as indicated. Following a 2 hr pretreatment, cells were co-treated with DOX at indicated concentrations for 6 or 22 hours. Following the overnight treatments, RNA or protein was isolated. HPH were seeded in collagen-coated 24 well plates and pretreated for 24 hrs. BT549 were seeded on inverted coverslips. After a 24 hr pretreatment, hepatocytes were co-administered as indicated and coverslips were inserted. The cell lines were used for less than 60 passages. H9c2 cells were seeded 0.8×10^5 in 24-well plates. […] A Cell Counting Kit-8 (Enzo) assay was carried out. Cell viability was described as a percent of vehicle control (0.1% DMSO).

For data set [3], the system named is iPSC-derived cardiomyocytes. Description: Cell viability, DOX-induced cytotoxicity in iPSC-derived cardiomyocytes. The class given is cell-based, human. As to conditions: co-administration with DOX. As for the experimental part: as §2
In data set [4] the test system is BT549 cells. As to the kind of experiment: HPH/BT549 co-culture, CPA cytotoxicity (CCK8). The class given is cell-based. As to conditions: HPH/BT549 coculture, DL7076 10 μM + CPA. The protocol: HPH were cultured in collagen-coated 24 well plates and pre-treated with vehicle control (0.1% DMSO), CITCO (1 μM) or DL7076 (5 μM or 10 μM) for 24 h. […] Following the 24 h pre-treatment, coverslips were combined in hepatocyte seeded wells and exposed to designated concentrations of cyclophosphamide in the presence or absence of DL7076 for various time intervals, as indicated.
H9c2 cells were seeded 0.8×10^5 in 24-well plates. Following cell attachment, a 2 h pre-treatment with vehicle control (0.1% DMSO), SFN (2.5 μM) or DL7076 (1 μM, 5 μM, or 10 μM) was done followed by doxorubicin (2.5 μM) exposure for 22 h. Co-culture cells were assembled and treated with cyclophosphamide and doxorubicin as indicated. A Cell Counting Kit-8 (Enzo) assay was carried out. Cell viability was described as a percent of vehicle control (0.1% DMSO). Cardiomyocyte, human iPSC-derived cardiomyocytes, and BT549 viability was determined with a 1 hr incubation of 6% CCK8 in WEM.

Another data set concerns hCAR. As to the kind of experiment: hCAR luciferase reporter assay in HepG2 cells (hCAR1+A, CYP2B6-2.2k reporter). The class given is cell-based, human. As for the experimental part: HepG2 cells were cultured in 24-well plates (1×10^5 cells/well) and transfected with either a hCAR1+A expression vector (30 ng/well), a CYP2B6-2.2k reporter (60 ng/well) reporter, and pRL-TK (10 ng/well) or a ARE expression vector using X-tremeGENE 9 DNA Transfection Reagent (Sigma-Aldrich). After an overnight transfection, cells were treated with a vehicle control (0.1% DMSO), RIF (10 μM), DL7076 (1 μM, 5 μM, and 10 μM) for 24 hours. Cell lysates were assayed for luciferase activity and normalized against the activity of the Renilla luciferase using a Dual-Luciferase Kit (Promega).

The subject of another data set is H9c2 cells. Description: Multi-organ co-culture (BT549/HPH/H9c2), H9c2 viability. The class given is cell-based, rat. As to conditions: DL7076 10 μM. The protocol: as §1

Regarding `O=C(NCCN=C=S)c1c(-c2ccc3ccccc3c2)nc2sccn12` [DL7076, N-(2-Isothiocyanatoethyl)-6-(naphthalen-2-yl)imidazo[2,1-b]thiazole-5-carboxamide], the “rate and extent of CPA biotransformation to 4-OH-CPA” value in the data set on HPH/BT549 coculture (coculture medium) is “increased rate and extent of CPA biotransformed”. Further, in the data set with HPH/BT549 coculture (fixed CPA 500 μM, 2 to 24 hours), the 4-OH-CPA formation result is “enhanced 4-OH-CPA formation in the coculture medium at all time points”. Besides, the “CPA/DOX cytotoxicity in BT549 cells” value in the data set on BT549 cells [1] is listed as “selectively enhanced CPA/DOX regimen cytotoxicity in BT549 cells”. Moreover, the “reversal of DOX-induced toxicity (viability)” value with BT549 cells [2] is “this efficient reversal was not shown”. For the same compound, in data set [3], the “reversal of DOX-induced cytotoxicity” value is listed as “efficiently reversed by co-administration of DL7076”. Further, the “CPA cytotoxicity in BT549 cells with cotreatment” value in the data set with BT549 cells [4] is given as “significantly enhanced the cytotoxicity of CPA”. Moreover, the “CAR1+A activation, luciferase reporter” value in the data set on hCAR (HepG2, 10 μM, 24 hours, vs CITCO 1 μM) is recorded as “activate CAR1+A in a comparable manner to the prototypical CAR activator, CITCO”. In addition, in the data set on hCAR (HepG2, screening, FIG. 37a), the “hCAR luciferase activity (efficacy among compound hybrids)” value is listed as “highest efficacy”. Also, in the data set with H9c2 cells, the “H9c2 viability during CPA/DOX treatment” value is “h9c2 cardiomyocyte viability can be protected during CPA/DOX treatment”.

These data come from patent US20230134760A1, “CAR AND NRF2 DUAL ACTIVATOR AGENTS FOR CYCLOPHOSPHAMIDE-BASED AND DOXORUBICIN-BASED TREATMENTS OF CANCER” (priority 2020, published 2023).
